Assay results reported in patent publication US10239887B2, “Positive allosteric modulators of the muscarinic acetylcholine receptor M4” (Vanderbilt University, priority 2016, dated 2019).
Where a name gives a salt, the structure may show the parent alone.

Biological target: T1, human mAChR M4 (Homo sapiens, UniProt P08173)
T1 sequence (P08173 1-479): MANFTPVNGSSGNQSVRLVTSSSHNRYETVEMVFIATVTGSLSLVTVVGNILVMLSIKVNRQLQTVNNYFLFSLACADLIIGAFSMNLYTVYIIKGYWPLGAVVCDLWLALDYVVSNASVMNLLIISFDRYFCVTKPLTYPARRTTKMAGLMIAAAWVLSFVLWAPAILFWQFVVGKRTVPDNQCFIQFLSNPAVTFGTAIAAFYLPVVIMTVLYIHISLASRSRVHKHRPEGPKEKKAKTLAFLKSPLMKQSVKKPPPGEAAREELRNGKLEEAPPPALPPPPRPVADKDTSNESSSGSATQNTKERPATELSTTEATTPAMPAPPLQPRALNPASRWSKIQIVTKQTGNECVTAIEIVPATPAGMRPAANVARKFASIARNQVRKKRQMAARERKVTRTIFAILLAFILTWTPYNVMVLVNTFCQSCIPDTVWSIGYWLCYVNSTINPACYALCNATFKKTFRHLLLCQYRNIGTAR
Assay: mAChR M4 cell-based functional assay (calcium flux), human M4
Settings: for EC50: calcium flux

[1] = Table 10, % ACh maximum at 30 μM
[2] = Human M4 EC50 (nM), Table 10, PAM activity with EC20 acetylcholine
[3] = Human M4 EC50 (nM), Table 11, PAM activity with EC20 acetylcholine
[4] = Table 11, % ACh maximum at 30 μM
[5] = Human M4, % ACh maximum at 30 μM
[6] = Human M4 EC50, CHO-K1 hM4-Gqi5 cells, increase in EC20 acetylcholine response

EC50 [2]	Emax [1]	Compound	also measured
		Cc1cc(C)c2c(n1)oc1c(NC3CC3)ncnc12 [Compound 295, N-cyclopropyl-7,9-dimethyl-pyrido[3′,2′:4,5]furo[3,2-d]pyrimidin-4-amine hydrochloride]	Emax (%) [1]: 63.93%
9780 nM	69.8%	Cc1c(Cl)cnc2sc3c(NCc4ccc(CN5CCOCC5)cc4)ncnc3c12 [Compound 232, 8-chloro-9-methyl-N-[[4-(morpholinomethyl)phenyl]methyl]pyrido [3′,2′:4,5]thieno[3,2-d] pyrimidin-4-amine]	
		Cc1nnc2sc3c(N4CC[C@H](Oc5ccc(C(F)(F)F)nc5)C4)ncnc3c2c1C [Compound 362, 3,4-dimethyl-8-[(3S)-3-[[6-(trifluoromethyl)-3-pyridyl]oxy]pyrrolidin-1-yl] pyrimido[4′,5′:4,5]thieno [2,3-c]pyridazine dihydrochloride]	EC50 [3]: 519 nM; Emax [4]: 75.7%
590 nM	66.4%	Cc1nnc2sc3c(N4CC(Nc5ncccc5C#N)C4)ncnc3c2c1C [Compound 141, 2-((1-(3,4-dimethylpyrimido [4′,5′:4,5]thieno[2,3-c]pyridazin-8-yl)azetidin-3-yl)amino) nicotinonitrile 2,2,2-trifluoroacetate]	
102 nM	57.6%	Cc1c(Cl)cnc2sc3c(N4CC(c5ccncc5)C4)ncnc3c12 [Compound 224, 8-chloro-9-methyl-4-[3-(4-pyridyl)azetidin-1-yl]pyrido [3′,2′:4,5]thieno[3,2-d] pyrimidine]	
		Cc1nnc2sc3c(NC4CN(c5ccc(C(F)(F)F)nc5)C4)ncnc3c2c1C [Compound 22, 3,4-dimethyl-N-(1-(6-(trifluoromethyl)pyridin-3-yl)azetidin-3-yl) pyrimido[4′,5′:4,5]thieno [2,3-c]pyridazin-8-amine]	Emax [5]: 36%; EC50 [6]: ≥ 10000 nM
		Cc1c(CO)nnc2sc3c(NCc4ccc(C(C)(C)O)cc4)ncnc3c12 [Compound 377, 2-[4-[[[3-(hydroxymethyl)-4-methyl-pyrimido[4′,5′:4,5]thieno[2,3-c]pyridazin-8-yl]amino]methyl]phenyl]propan-2-ol]	Emax [4]: 93.6%
		Cc1nnc2sc3c(N4CCC(COc5ccnc(Cl)c5)C4)ncnc3c2c1C (stereo not shown) [Compound 347, 8-[3-[(2-chloro-4-pyridyl)oxymethyl]pyrrolidin-1-yl]-3,4-dimethyl-pyrimido[4′,5′:4,5] thieno[2,3-c]pyridazine dihydrochloride]	EC50 [3]: 362 nM; Emax [4]: 48.5%
794 nM	94.2%	Cc1nnc2sc3c(NCc4ccc(F)c(C(=O)NC(C)C(C)(C)CO)c4)ncnc3c2c1C (stereo not shown) [Compound 185, 5-[[(3,4-dimethylpyrimido [4′,5′:4,5]thieno[2,3-c]pyridazin-8-yl)amino]methyl]-2-fluoro-N-(3-hydroxy-1,2,2-trimethyl-propyl)benzamide]	
481 nM	84.2%	Cc1nnc2sc3c(NCc4ccc(C(=O)N5CC6CC6C5)cc4)ncnc3c2c1C (stereo not shown) [Compound 126, 3-azabicyclo[3.1.0] hexan-3-yl-[4-[[(3,4-dimethylpyrimido [4′,5′:4,5]thieno[2,3-c]pyridazin-8-yl)amino]methyl]phenyl] methanone]	
837 nM	56.9%	Cc1nnc2sc3c(NCc4ccc(-c5ccc[nH]5)cc4)ncnc3c2c1C [Compound 191, 3,4-dimethyl-N-[[4-(1H-pyrrol-2-yl)phenyl]methyl]pyrimido[4′,5′:4,5] thieno[2,3-c]pyridazin-8-amine]	
		Cc1nnc2sc3c(NCc4ccc(-n5cccn5)cc4)ncnc3c2c1C [Compound 345, 3,4-dimethyl-N-[(4-pyrazol-1-ylphenyl)methyl] pyrimido[4′,5′:4,5]thieno [2,3-c]pyridazin-8-amine]	EC50 [3]: 830 nM; Emax [4]: 87.1%
	54.1%	Cc1nnc2sc3c(NCc4ccc(C(C)(C)O)nc4)ncnc3c2c1C [Compound 106, 2-[5-[[(3,4-dimethylpyrimido [4′,5′:4,5]thieno[2,3-c]pyridazin-8-yl)amino]methyl]-2-pyridyl]propan-2-ol]	
		Cc1nnc2sc3c(N4CCC(Oc5ccncc5)(C(F)(F)F)C4)ncnc3c2c1C (stereo not shown) [Compound 366, 3,4-dimethyl-8-[3-(4-pyridyloxy)-3-(trifluoromethyl)pyrrolidin-1-yl]pyrimido[4′,5′:4,5]thieno[2,3-c]pyridazine dihydrochloride]	EC50 [3]: 1360 nM; Emax [4]: 77.7%
481 nM	49%	Cc1c(Cl)cnc2sc3c(NC4(C)CC4)ncnc3c12 [Compound 226, 8-chloro-9-methyl-N-(1-methylcyclopropyl) pyrido[3′,2′:4,5]thieno [3,2-d]pyrimidin-4-amine]	
		Cc1nnc2sc3c(NCc4ccc(-c5cccn5C)cc4)ncnc3c2c1C [Compound 341, 3,4-dimethyl-N-[[4-(1-methylpyrrol-2-yl)phenyl]methyl]pyrimido[4′,5′:4,5] thieno[2,3-c]pyridazin-8-amine]	EC50 [3]: 1290 nM; Emax [4]: 81.2%

EC50 [2]	Emax [1]	Compound	also measured
		Cc1cnc2sc3c(N4CCCC4)ncnc3c2c1 [Compound 15, 8-methyl-4-(pyrrolidin-1-yl) pyrido[3′,2′:4,5]thieno [3,2-d]pyrimidine]	Emax [5]: 40%
105 nM	74.9%	Cc1nnc2sc3c(NCc4ccc(C(=O)NC5CCC5)cc4)ncnc3c2c1C [Compound 150, N-cyclobutyl-4-[[(3,4-dimethylpyrimido [4′,5′:4,5]thieno[2,3-c]pyridazin-8-yl)amino]methyl]benzamide]	
1750 nM	57.9%	Cc1nnc2oc3c(NC4CC(F)(F)C4)ncnc3c2c1C [Compound 306, N-(3,3-difluoro-cyclobutyl)-3,4-dimethyl-pyrimido [4′,5′:4,5]furo[2,3-c]pyridazin-8-amine]	
		Cc1nnc2sc3c(N4CC(C)(O)C4)ncnc3c2c1C [Compound 34, 1-(3,4-dimethylpyrimido [4′,5′:4,5]thieno[2,3-c]pyridazin-8-yl)-3-methylazetidin-3-ol]	Emax [5]: 59%; EC50 [6]: 660 nM
1640 nM	61.1%	COc1ccc(C2CC2Nc2ncnc3c2sc2nc(C)cc(C)c23)cc1 (stereo not shown) [Compound 202, N-[2-(4-methoxyphenyl)cyclopropyl]-7,9-dimethyl-pyrido [3′,2′:4,5]thieno[3,2-d] pyrimidin-4-amine]	
		[2H]C([2H])([2H])OC(C)(C)c1ccc(CNc2ncnc3c2sc2nnc(C)c(C)c23)cc1 [Compound 370, 3,4-dimethyl-N-[[4-[1-methyl-1-(trideuteriomethoxy)ethyl]phenyl]methyl] pyrimido[4′,5′:4,5]thieno [2,3-c]pyridazin-8-amine]	EC50 [3]: 326 nM; Emax [4]: 93.1%
172 nM	58.7%	Cc1cc(C)c2c(n1)sc1c(N3CCC3)ncnc12 [Compound 197, 4-(azetidin-1-yl)-7,9-dimethyl-pyrido [3′,2′:4,5]thieno[3,2-d] pyrimidine]	
1010 nM	64.4%	Cc1nc2sc3c(N4CC5CC5C4)ncnc3c2c(C)c1Cl (stereo not shown) [Compound 257, 4-(3-azabicyclo[3.1.0]hexan-3-yl)-8-chloro-7,9-dimethyl-pyrido [3′,2′:4,5]thieno[3,2-d] pyrimidine hydrochloride]	
309 nM	90.4%	Cc1nnc2sc3c(NCc4ccc(C(=O)N(C)C5CC5)cc4)ncnc3c2c1C [Compound 132, N-cyclopropyl-4-[[(3,4-dimethylpyrimido [4′,5′:4,5]thieno[2,3-c]pyridazin-8-yl)amino]methyl]-N-methyl-benzamide]	
511 nM	105%	Cc1nnc2sc3c(NCc4ccc(F)c(C(=O)NC5CC5)c4)ncnc3c2c1C [Compound 176, N-cyclopropyl-5-[[(3,4-dimethylpyrimido [4′,5′:4,5]thieno[2,3-c]pyridazin-8-yl)amino]methyl]-2-fluoro-benzamide]	
3230 nM	70%	Cc1c(Cl)cnc2sc3c(NC4CCC4)ncnc3c12 [Compound 228, 8-chloro-N-cyclobutyl-9-methyl-pyrido [3′,2′:4,5]thieno[3,2-d] pyrimidin-4-amine]	
378 nM	51%	COc1c(F)cc(CNc2ncnc3c2oc2nnc(C)c(C)c23)cc1F [Compound 311, N-[(3,5-difluoro-4-methoxy-phenyl)methyl]-3,4-dimethyl-pyrimido[4′,5′:4,5] furo[2,3-c]pyridazin-8-amine]	
220 nM	85%	Cc1nnc2sc3c(NCc4ccc(C(=O)NC(C)C(C)(C)CO)cc4)ncnc3c2c1C (stereo not shown) [Compound 158, 4-[[(3,4-dimethylpyrimido [4′,5′:4,5]thieno[2,3-c]pyridazin-8-yl)amino]methyl]-N-(3-hydroxy-1,2,2-trimethyl-propyl) benzamide]	
		Cc1nnc2sc3c(N4CC[C@H](Oc5ccnc(Cl)c5)C4)ncnc3c2c1C [Compound 329, 8-[(3S)-3-[(2-chloro-4-pyridyl)oxy]pyrrolidin-1-yl]-3,4-dimethyl-pyrimido [4′,5′:4,5]thieno[2,3-c] pyridazine]	EC50 [3]: 107 nM; Emax [4]: 76.6%
		Cc1cnc2sc3c(N4CCC(F)(F)C4)ncnc3c2c1 [Compound 16, 4-(3,3-difluoropyrrolidin-1-yl)-8-methylpyrido [3′,2′:4,5]thieno[3,2-d] pyrimidine]	Emax [5]: 360%; EC50 [6]: 377 nM
